Source: patent US20070027634A1, “Molecular hepatotoxicology modeling” (priority 2002, published 2007)

Experiments:
[1] = test system: rat hepatocytes; details: cited from earlier work
[2] = cited from earlier work
[3] = cited from earlier work; remark: listed apart in the source
[4] = rats and hamsters; cited from earlier work
[5] = dogs, after treatment; cited from earlier work
[6] = in vivo; cited from earlier work
[7] = rats and mice; cited from earlier work
[8] = mice; cited from earlier work
[9] = cited from earlier work; remark: listed apart in the source
[10] = Light microscopic analysis of liver and kidney of dosed rats (present inventors)
[11] = Serum clinical chemistry of dosed rats (studies by the present inventors); details: AY-25329; as early as 6 hours after the first dose; 14 day study
[12] = in vivo; cited from earlier work; remark: listed apart in the source
[13] = hamster livers; cited from earlier work
[14] = rat liver mitochondria; cited from earlier work
[15] = test system: human hepatoma cell lines; details: cited from earlier work
[16] = acute administration, male rats
[17] = 14 days of repeated dosing, 250 mg/kg/day
[18] = male Sprague Dawley rats, 0.1, 1, 2, 3, 4 mL/kg ip, […] po
[19] = male Sprague Dawley rats, peak within 48 hours post dose

## O=C(O)c1cc(-c2ccc(F)cc2F)ccc1O [diflunisal]
[1]; rat hepatocytes
  LDH (lactic acid dehydrogenase) leakage: increase
  intracellular ATP: decreased

## CC(=O)Nc1ccc2c(c1)Cc1ccccc1-2 [2-AAF, 2-acetylaminofluorene]
[2]; rats
  liver finding (pathology): cirrhosis-like changes in the liver
[3]; rats
  ALT (alanine aminotransferase) level in serum or plasma: elevated
  AST (aspartate aminotransferase) level in serum or plasma: elevated

## Cc1ccc(C)c(OCCCC(C)(C)C(=O)O)c1 [gemfibrozil]
[4]
  DT-diaphorase activity: increase
  alpha-tocopherol: decrease

## C#C[C@]1(O)CC[C@H]2[C@@H]3CCc4cc(O)ccc4[C@H]3CC[C@@]21C [17α-ethinylestradiol]
[2]; male rats
  activity of liver enzyme alkaline phosphatase: initially showed significant increases, but enzyme levels decreased after 3 days
  activity of liver enzyme leucine aminopeptidase: initially showed significant increases, but enzyme levels decreased after 3 days
  bile flow: decrease
  bilirubin output: increased
  glutathione (GSH) output: decreased
[2]; rats
  liver finding (pathology): reversible intrahepatic cholestasis
  liver weight: increase
[3]; male rats
  plasma cholesterol level: decrease
  plasma level of bile salts: not changed
  plasma level of bilirubin: not changed
  plasma triglyceride level: decrease
[3]; rats
  ALT (alanine aminotransferase) level in serum or plasma: not changed
  AST (aspartate aminotransferase) level in serum or plasma: not changed

## Cl.Nc1nc2c(Cc3ccsc3)c[nH]c2c(=O)[nH]1.O [CI-1000, 4H-pyrrolo:3,2-d:pyrimidin-4-one, 2-amino-3,5-dihydro-7-(3-thienylmethyl)-monohydrochloride monohydrate]
[5]
  serum ALT level: increased

## CC(=N)S [thioacetamide, Thioacetamide]
[3]; rats
  ALT (alanine aminotransferase) level in serum or plasma: elevated levels
  AST (aspartate aminotransferase) level in serum or plasma: elevated levels
  serum BUN: elevated levels
  serum TNFα: elevated levels
  serum creatinine: elevated levels
  serum total bilirubin: elevated levels

## S=C=Nc1cccc2ccccc12 [ANIT, α-naphthylisothiocyanate]
[6]
  activity of catalase: decreased
  activity of superoxide dismutase: decreased
  serum glutamic oxaloacetic transaminase: increase
  serum glutamic pyruvic transaminase: increase
  serum level of alkaline phosphatase: increase
  serum level of total bilirubin: increase
  total bile flow: reduced

## CC(=O)Nc1ccc(O)cc1 [acetaminophen]
[2]; rats
  liver finding (pathology): hepatocellular necrosis
  time after dosing at which hepatotoxicity can be observed: 24 h
[3]; rats
  ALT (alanine aminotransferase) level in serum or plasma: statistically significant elevations
  AST (aspartate aminotransferase) level in serum or plasma: statistically significant elevations

## ClC(Cl)Cl [chloroform, Chloroform]
[7]
  level of BUN: increased levels
  level of phosphatidyl-ethanolamine: decreased levels
  level of serum creatinine: increased levels
  level of tissue glutathione (GSH): decreased levels
[8]
  levels of 5-methylcytosine and of the methylated c-myc gene: Decreased levels
[9]; humans, poisoning
  markers of hepatocellular regeneration (alpha-fetoprotein, retinol-binding protein, gamma-glutamyl transferase and des-gamma-carboxyprothrombin): increased levels
[9]; humans
  alkaline phosphatase (AL-P) level: decreased levels
[2]; [16]
  time to cytoplasmic accumulation of lipids in hepatocytes: 1 to 3 h
  time to focal necrosis and hydropic swelling of hepatocytes: 5 to 6 h

## CCOC(=O)C(C)(C)Oc1ccc(Cl)cc1 [clofibrate]
[2]; rat study of liver hyperplasia and liver tumors
  levels of copper in neoplastic liver tissues: increased levels
[2]; rats
  liver finding (pathology): hepatocellular hypertrophy, cellular proliferation, hepatomegaly, induction of CYP450 isozymes, and induction of palmitoyl CoA oxidation

## O=C(CCN1CCN2CCCC2C1)N1c2ccccc2Sc2ccc(Cl)cc21 (stereo not drawn) [AY-25329]
[10]; [17]
  kidney finding: nephrosis
  liver finding: alterations in the peripheral lobes of the liver and in the cytoplasm of hepatocytes
[10]; liver, 6 and 24 hours
  hepatocytic mitotic figures (light microscopy): increased number
  liver glycogen content (light microscopy): decreased
[11]
  serum level of ALT: statistically significant increases
  serum level of BUN: statistically significant increases
  serum level of cholesterol: statistically significant increases
  serum level of creatinine: statistically significant increases
  serum level of triglycerides: statistically significant increases

## CN(C)N=O [DMN, dimethylnitrosamine]
[2]; rats
  hydroxyproline levels (indicator of fibrosis): elevated
  liver finding (pathology): severe centrilobular congestion and haemorrhagic necrosis
[3]; rats
  ALT (alanine aminotransferase) level in serum or plasma: increased
  serum SOD: decreased
  serum malondialdehyde (MDA): increased

## CC(c1cc2ccccc2s1)N(O)C(N)=O (stereo not drawn) [zileuton]
[12]
  levels of liver peroxisomal palmitoyl CoA oxidase: elevated levels
  levels of microsomal cytochromes P450 2B and P450 4A: elevated levels
  liver size: hepatomegaly

## NN [hydrazine, Hydrazine]
[1]; rat hepatocytes
  GSH: depletion
  LDH (lactic acid dehydrogenase) leakage: leakage
  intracellular ATP: depletion
  rate of protein synthesis: decreased
  viability: dose-dependent loss
[13]
  hepatic adenomas and carcinomas: developed in a dose-dependent manner
[2]; rats
  liver finding (pathology): induction of fatty liver
  liver weight: increases

## Cc1cccc(Nc2cc(Cl)nc(SCC(=O)O)n2)c1C [Wy-14643]
[14]
  oxidative phosphorylation: capable of uncoupling oxidative phosphorylation

## Cl.Nc1c2c(nc3ccccc13)CCCC2 [tacrine, 1,2,3,4-tetrahydro-9-aminoacridine-hydrochloride]
[15]
  cytotoxicity: displayed cytotoxicity
[1]; primary rat hepatocytes
  cytotoxicity: displayed cytotoxicity
[2]; rats
  liver finding (pathology): have not shown a correlation between tacrine exposure and hepatotoxicity

## ClC(Cl)(Cl)Cl [CCl4, carbon tetrachloride]
[2]; acute administration, male rats, post dose
  time of peak centrilobular necrosis and inflammatory infiltration: 24 to 48 h
[2]; [16]
  time to cytoplasmic accumulation of lipids in hepatocytes: 1 to 3 h
  time to focal necrosis and hydropic swelling of hepatocytes: 5 to 6 h
  time to full restoration of the liver: ≤ 14 days
[3]; male SD rats, 25 μL/kg po, as early as 2 hours after administration
  serum α-glutathione s-transferase (α-GST) level: Significant increases
[3]; [18]
  time after administration within which ALT level increases: ≤ 3 h
  time after administration within which AST level increases: ≤ 3 h
[3]; [19]
  peak increase of ALT level: 5-10 fold
  peak increase of AST level: 5-10 fold

## CC(O)(CS(=O)(=O)c1ccc(F)cc1)C(=O)Nc1ccc(C#N)c(C(F)(F)F)c1 (stereo not drawn) [bicalutamide]
[9]; humans
  ALT / glutamic-pyruvic transaminase (GPT) level: elevated levels
  AST / glutamic-oxalacetic transaminase (GOT) level: elevated levels
  alkaline phosphatase (AL-P) level: elevated levels
[9]; prostate cancer patients
  gamma guanosine 5′-triphosphate (gamma-GTP) level: elevated levels
[2]; rats
  levels of CYP3A1: elevated levels

## COc1ccc2c(c1)c(CC(=O)O)c(C)n2C(=O)c1ccc(Cl)cc1 [indomethacin]
[2]; rats, single dose
  liver and renal microsomal enzymes, including CYP450: reduce

## CC(=O)O[C@]1(C(C)=O)CC[C@H]2[C@@H]3C=C(Cl)C4=CC(=O)[C@@H]5C[C@@H]5[C@]4(C)[C@H]3CC[C@@]21C [CPA, Cyproterone acetate]
[2]; rats, single oral dose
  time after which continuous DNA repair activity was observed: 16 h
[2]; rats
  occurrence of S phase cells in rat liver: increased

## CCCC(CCC)C(=O)O [valproate, n-dipropylacetic acid]
[1]; cultured rat hepatocytes
  amounts of acyl-CoA esters: increased amounts
[1]; rat hepatocytes
  LDH (lactic acid dehydrogenase) leakage: dose-dependent leakage
[9]; patients
  share of patients with elevated levels of hepatic enzymes: about 40%
[2]; rats
  liver finding (pathology): microvesicular steatosis
